From article PMC5540818 (Chemical biology & drug design, 2017)
Counter-ions that a name gives are not always drawn.

Key:
Sa-SrtA = Sa-SrtA (Staphylococcus aureus, UniProt Q2FV99); conditions: read-out: Sa-SrtA IC50; values taken from reference; cited from earlier work
[1] = Solubility in aqueous buffer; type: physicochemical
S. aureus infections = conditions: dosed at 20 (DMMA) and 40 (triazolothiadiazole) mg of compound per kg of animal; cited from earlier work
SrtA = SrtA (Staphylococcus aureus, UniProt Q2FV99); conditions: read-out: SrtA IC50; cited from earlier work
SrtA, sequence (Q2FV99 60-206): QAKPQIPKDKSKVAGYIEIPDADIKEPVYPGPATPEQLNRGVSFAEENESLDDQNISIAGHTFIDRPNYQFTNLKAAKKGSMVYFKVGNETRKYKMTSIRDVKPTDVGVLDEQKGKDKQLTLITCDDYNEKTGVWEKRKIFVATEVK

Sa-SrtA, sequence (Q2FV99 60-206): as above

Structure (SMILES) | IC50 (Sa-SrtA) [µM] | solubility in aqueous solvent ([1]; aqueous solvent) | solubility ([1]; aqueous buffer) | efficacy in treating potentially lethal S. aureus infections in animal models (S. aureus infections) | IC50 (SrtA) [µM]
CCOc1c(S)cnn(-c2ccccc2)c1=O [2-10] | 13 ± 1 | poorly soluble |  |  | 
CCOc1c(S)cnn(-c2ccccc2)c1=O [2-salt, 5-ethoxy-6-oxo-1-phenyl-1,6-dihydropyridazine-4-thiolate] |  |  | up to 75 mM |  | 
COc1ccc(/C(C#N)=C/c2cc(OC)ccc2OC)cc1 [DMMA, (Z)-3-(2,5-dimethoxyphenyl)-2-(4-methoxyphenyl) acrylonitrile] |  |  |  | efficacious | 9.2
O=S(=O)([O-])c1ccccc1-c1nn2c(-c3ccncc3)nnc2s1.[Na+] [triazolothiadiazol, 3-(4-pyridinyl)-6-(2-sodiumsulfonatephenyl)[1,2,4]triazolo[3,4-b][1,3,4]thiadiazole] |  |  |  | efficacious | 9.3
